Experimental data reported in patent publication US20250295619A1, “Use of Salvianolic Acid E in the Preparation of Drugs Targeting Senescent Cells, Inhibiting Tumors or Extending Lifespan” (Shanghai Institute of Nutrition and Health, Chinese Academy …, priority 2024, published 2025).

What was measured:
PSC27 = test: Flow cytometry apoptosis of PSC27; assay type: cell-based, human; conditions: SAE
Source text: Q2, distribution area of early apoptotic cells; Q3, distribution area of late apoptotic cells.

SASP = test: qRT-PCR of typical SASP molecules in BLEO-induced senescent PSC27 cells at different SAE concentrations; assay type: cell-based, human
Method: All data are normalized results compared to the CTRL group. *P<0.05, **P<0.01, ***P<0.001.
To cause cell damage, 50 μg/mL bleomycin (bleomycin, BLEO) was added to the culture medium when PSC27 cells grew to 80% (abbreviated as PSC27-CTRL). After 12 hours of drug treatment, the cells were simply washed 3 times with PBS, left in the culture medium for 7-10 days, and then the subsequent experiments were performed.
Total RNA of cells in the growth phase or stasis phase was extracted with Trizol reagent. 1 mL Trizol was added to each T25 culture flask. The cell layer was scraped off with a cell scraper, transferred into a centrifuge tube and mixed well until not viscous. […]
Samples were loaded according to the above standard, and the reaction conditions were: 95° C. pre-denaturation for 15 seconds, then 95° C. for 5 seconds, 60° C. for 31 seconds, 40 cycles; melting curve conditions were 95° C. for 15 seconds, 60° C. for 30 seconds, 95° C. for 15 seconds. […] After the reaction was completed, the amplification of each gene was checked by software analysis, the corresponding threshold cycle number was derived, and the relative expression of each gene was calculated using the 2-ΔΔCt method. The peak and waveform of the melting curve was analyzed to determine whether the obtained amplification product was a specific single target fragment.

aged C57BL/6 mice = test: Lifespan study in aged C57BL/6 mice; assay type: in vivo, mouse; conditions: administered from 24-27 months of age, every two weeks
Method: Starting at 24 to 27 months of age, C57BL/6 mice received intraperitoneal administration of vehicle or SAE every two weeks (n=80 for vehicle group; n=91 for SAE group). The median survival of animals in each group was calculated and indicated. ****, P<0.0001.
Starting at 24 to 27 months of age, C57BL/6 mice received intraperitoneal administration of vehicle or SAE every two weeks (n=80 for vehicle group; n=91 for SAE group). The median lifetime survival of animals in each group was calculated and indicated. ****, P<0.0001.
For the cell transplantation study, the inventors obtained […] male C57BL/6 mice by serial rearing in the SPF animal platform, with 4 to 5 animals per cage. The inventors first sorted the mice by body weight from low to high, and then selected mice with similar body weights. Next, the mice were assigned to senescence (SEN) or control (CTRL) transplant treatment at each interval using a random number generator, while the middle mice were assigned to the other treatment, so that the body weights of the senescence and control transplant mice were matched. One month after cell transplantation, when the mice were 18 months old, physical function tests were performed. After that, no further testing was done on the mice other than checking their cages. The earliest deaths occurred approximately 2 months after the last physical function test. […]

PC3/PSC27 tumors = test: Disease-free survival of tumor-bearing NOD/SCID mice; assay type: in vivo, mouse; conditions: severe disease at tumor size ≥2000 mm3
Source text: When the tumor volume in the vehicle, MIT, SAE and MIT/SAE groups exceeds 2000 mm3, it is considered that severe disease has occurred, and the mice need to be killed in time and the tumor bearing status should be detected. ^, P>0.05; **, P<0.01.
Then the survival of animals in different drug-treated groups was compared, primarily in a time-prolonged manner to assess the consequences of tumor progression. In this preclinical cohort, animals were monitored for prostate tumor growth, and severe disease was judged to have occurred once the […] tumor burden in mice was prominent (size≥2000 mm3), which was a method used for assessing progression of tumors and other diseases in certain conditions.

O=C(/C=C/c1ccc(O)c(O)c1/C(=C\c1ccc(O)c(O)c1)C(=O)O[C@H](Cc1ccc(O)c(O)c1)C(=O)O)O[C@H](Cc1ccc(O)c(O)c1)C(=O)O [SAE, salvianolic acid E]
change of proliferating cells (PSC27): not obvious | proportion of apoptosis of senescent PSC27 cells (PSC27): significantly increased | viability of senescent PSC27 cells (PSC27): significantly reduced | inhibition of SASP development at lower or higher concentrations (SASP; compared with 50 μM): less effective | working concentration that inhibited SASP development with the greatest efficiency (SASP; concentration gradient, senescent PSC27): 50 µM | risk of death HR (SAE group/vehicle group) (aged C57BL/6 mice): 0.3249 | median survival of tumor-bearing mice (PC3/PSC27 tumors): only a marginal extension of survival
